Legend:
Histamine H2 receptor = Histamine H2 receptor (Homo sapiens, UniProt P25021); assay type: cell membranes, CHO-K1, Membrane; settings: cho-k1; also: in other assays of this panel Not Active means under 50% inhibition at 10 µM
[1] = target: Aldo-keto reductase family 1 member B1 (Rattus norvegicus, UniProt P07943); assay: biochemical; assay type: tissue-based, Lens of camera-type eye;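 also: inhibition of aldose reductase enzyme activity, measured with DL-glyceraldehyde as the substrate; in other assays of this panel Not Active means under 50% inhibition at 10 µM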
[2] = DRUGMATRIX: Phorbol Ester radioligand binding (ligand: [3H] PDBu); assay type: cell membranes, Mus musculus, ICR, Brain, Membrane; settings: Not Active = under 50% inhibition at 10 µM
Melanocortin receptor 4 = Melanocortin receptor 4 (Homo sapiens, UniProt P32245); assay type: cell membranes, Membrane; settings: hek293; also: in other assays of this panel Not Active means under 50% inhibition at 10 µM
Melanocortin receptor 4, sequence (P32245 whole entry): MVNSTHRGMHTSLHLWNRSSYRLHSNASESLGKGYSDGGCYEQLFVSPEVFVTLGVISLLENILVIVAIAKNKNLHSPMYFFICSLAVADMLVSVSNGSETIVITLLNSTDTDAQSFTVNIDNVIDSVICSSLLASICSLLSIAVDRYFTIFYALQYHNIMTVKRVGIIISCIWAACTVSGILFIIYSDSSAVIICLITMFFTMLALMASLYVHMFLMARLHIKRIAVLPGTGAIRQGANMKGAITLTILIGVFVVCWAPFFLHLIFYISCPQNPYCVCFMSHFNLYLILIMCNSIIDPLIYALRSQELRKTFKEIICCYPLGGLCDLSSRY

[3] = target: C-C chemokine receptor type 2 (Homo sapiens, UniProt P41597); assay type: cell membranes, CHO-K1, Membrane; also: in other assays of this panel Not Active means under 50% inhibition at 10 µM
C-C chemokine receptor type 2, sequence (P41597 whole entry): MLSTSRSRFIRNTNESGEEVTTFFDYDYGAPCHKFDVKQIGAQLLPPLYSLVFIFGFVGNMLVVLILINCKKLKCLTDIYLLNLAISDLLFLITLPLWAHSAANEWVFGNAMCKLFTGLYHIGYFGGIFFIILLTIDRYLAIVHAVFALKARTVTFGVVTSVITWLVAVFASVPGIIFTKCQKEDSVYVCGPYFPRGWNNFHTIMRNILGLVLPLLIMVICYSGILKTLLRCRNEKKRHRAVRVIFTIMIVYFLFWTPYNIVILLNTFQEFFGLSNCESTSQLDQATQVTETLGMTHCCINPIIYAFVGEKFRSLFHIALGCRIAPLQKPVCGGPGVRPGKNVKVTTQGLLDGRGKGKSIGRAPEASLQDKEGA

[4] = DRUGMATRIX: Calcium Channel Type L, Dihydropyridine radioligand binding (ligand: [3H] Nitrendipine); assay type: cell membranes, Rattus norvegicus, Wistar, Cerebral cortex, Membrane; settings: Not Active = under 50% inhibition at 10 µM

Histamine H2 receptor, sequence (P25021 whole entry): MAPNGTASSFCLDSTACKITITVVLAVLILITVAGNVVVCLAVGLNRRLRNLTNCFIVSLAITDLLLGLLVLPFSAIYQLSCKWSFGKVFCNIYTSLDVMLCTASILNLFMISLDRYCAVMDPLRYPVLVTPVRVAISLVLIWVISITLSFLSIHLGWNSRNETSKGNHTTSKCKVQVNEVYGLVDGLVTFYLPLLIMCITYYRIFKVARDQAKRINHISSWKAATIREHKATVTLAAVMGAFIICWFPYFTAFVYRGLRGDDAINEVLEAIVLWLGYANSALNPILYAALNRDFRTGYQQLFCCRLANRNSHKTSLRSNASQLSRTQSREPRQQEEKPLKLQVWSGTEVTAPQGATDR

Compound	IC50 (Histamine H2 receptor)	IC50 [1]	IC50 [2]	Ki [2]	IC50 (Melanocortin receptor 4)	IC50 ([3]; read-out: IC50) [nM]	Ki ([3]; read-out: Ki) [nM]	IC50 [4]	Ki [4]	IC50 ([3]; cho-k1)	Ki (Histamine H2 receptor)	Ki [1]	Ki (Melanocortin receptor 4)	Ki ([3]; cho-k1)	IC50 ([1]; read-out: IC50) [nM]	IC50 ([4]; read-out: IC50) [nM]	Ki ([4]; read-out: Ki) [nM]
CCN(CC)C(=S)SSC(=S)N(CC)CC	Not Active	Not Active	Not Active	Not Active	Not Active	2470	954	Not Active	Not Active	–	–	–	–	–	–	–	–
O=[As][O-].[Na+] [SODIUM ARSENITE]	Not Active	Not Active	Not Active	Not Active	Not Active	–	–	Not Active	Not Active	Not Active	–	–	–	–	–	–	–
CCN(CC)N=O [N-NITROSODIETHYLAMINE]	Not Active	Not Active	Not Active	Not Active	Not Active	–	–	Not Active	Not Active	Not Active	–	–	–	–	–	–	–
Nc1nc(N)c2nc(-c3ccccc3)c(N)nc2n1	Not Active	Not Active	Not Active	Not Active	Not Active	–	–	Not Active	Not Active	Not Active	–	–	–	–	–	–	–
CCN(CC)CCNC(=O)c1cc(Cl)c(N)cc1OC [METOCLOPRAMIDE]	Not Active	Not Active	Not Active	Not Active	Not Active	–	–	Not Active	Not Active	Not Active	–	–	–	–	–	–	–
Cc1nnc(NS(=O)(=O)c2ccc(N)cc2)s1 [SULFAMETHIZOLE]	Not Active	Not Active	Not Active	Not Active	Not Active	–	–	Not Active	Not Active	Not Active	–	–	–	–	–	–	–
CC#C[C@]1(O)CC[C@H]2[C@@H]3CCC4=CC(=O)CCC4=C3[C@@H](c3ccc(N(C)C)cc3)C[C@@]21C [MIFEPRISTONE]	Not Active	Not Active	Not Active	Not Active	Not Active	–	–	Not Active	Not Active	Not Active	–	–	–	–	–	–	–
CS(=O)(=O)c1ccc(C2=C(c3ccccc3)C(=O)OC2)cc1 [ROFECOXIB]	Not Active	Not Active	Not Active	Not Active	Not Active	–	–	Not Active	Not Active	Not Active	–	–	–	–	–	–	–
CC1(C)[C@H](C(=O)O)N2C(=O)C[C@H]2S1(=O)=O [SULBACTAM]	Not Active	Not Active	Not Active	Not Active	Not Active	–	–	Not Active	Not Active	Not Active	–	–	–	–	–	–	–
CO[C@@H]1[C@@H](OC)[C@H](C)[C@@](O)(CC(=O)O)O[C@H]1[C@H](C)[C@H]1O[C@@]2(CC[C@@](C)([C@H]3CC[C@@](C)([C@@H]4O[C@@H]([C@H]5O[C@](C)(O)[C@H](C)C[C@@H]5C)C[C@@H]4O[C@@H]4C[C@H](OC)[C@@H](OC)[C@H](C)O4)O3)O2)C[C@H](O)[C@H]1C.N [MADURAMICIN]	Not Active	Not Active	Not Active	Not Active	Not Active	–	–	Not Active	Not Active	Not Active	–	–	–	–	–	–	–
LEAD(IV) ACETATE	Not Active	Not Active	Not Active	Not Active	Not Active	–	–	Not Active	Not Active	Not Active	Not Active	Not Active	Not Active	Not Active	–	–	–
O=C(c1ccccc1)c1ccc2n1CCC2C(=O)O (configuration not stated) [KETOROLAC]	Not Active	–	Not Active	Not Active	Not Active	–	–	Not Active	Not Active	Not Active	–	–	–	–	6110	–	–
CC[C@H](C)[C@@H](CO[C@@H](Cc1ccccc1)C(=O)N[C@@H](CCS(C)(=O)=O)C(=O)OC(C)C)NC[C@@H](N)CS	Not Active	Not Active	Not Active	Not Active	Not Active	–	–	–	–	Not Active	–	–	–	–	–	4500	2890
CN1C(=O)OC(C)(C)C1=O [TRIMETHADIONE]	Not Active	Not Active	Not Active	Not Active	Not Active	–	–	Not Active	Not Active	Not Active	–	–	–	–	–	–	–
CCC(C)(C)C(=O)O[C@H]1C[C@@H](C)C=C2C=C[C@H](C)[C@H](CC[C@@H]3C[C@@H](O)CC(=O)O3)[C@H]21 [SIMVASTATIN]	Not Active	Not Active	Not Active	Not Active	Not Active	–	–	Not Active	Not Active	Not Active	–	–	–	–	–	–	–
Cc1ccc(S(=O)(=O)NC(=O)NN2CCCCCC2)cc1 [TOLAZAMIDE]	Not Active	Not Active	Not Active	Not Active	Not Active	–	–	Not Active	Not Active	Not Active	–	–	–	–	–	–	–
CC(Cl)(Cl)Cl [TRICHLOROETHANE]	Not Active	Not Active	Not Active	Not Active	Not Active	–	–	Not Active	Not Active	Not Active	–	–	–	–	–	–	–
CC(C)(C)NC[C@H](O)COc1cccc2c1CCCC2=O [LEVOBUNOLOL]	Not Active	Not Active	Not Active	Not Active	Not Active	–	–	Not Active	Not Active	Not Active	–	–	–	–	–	–	–
CCN1CCCC1CNC(=O)c1cc(S(N)(=O)=O)ccc1OC (configuration not stated) [SULPIRIDE]	Not Active	Not Active	Not Active	Not Active	Not Active	–	–	Not Active	Not Active	Not Active	–	–	–	–	–	–	–
Cc1cccc(C)c1NC(=O)C(C)N (configuration not stated) [TOCAINIDE]	Not Active	Not Active	Not Active	Not Active	Not Active	–	–	Not Active	Not Active	Not Active	–	–	–	–	–	–	–
CCOC(=O)C1=C(C)NC(C)=C(C(=O)OCC)C1c1ccccc1/C=C/C(=O)OC(C)(C)C [LACIDIPINE]	Not Active	Not Active	Not Active	Not Active	Not Active	–	–	–	–	Not Active	–	–	–	–	–	0.4	0.257
C=CCc1ccc2c(c1)OCO2 [SAFROLE]	Not Active	Not Active	Not Active	Not Active	Not Active	–	–	Not Active	Not Active	Not Active	–	–	–	–	–	–	–
O=C(OC[C@H]1O[C@@H](OC(=O)c2cc(O)c(O)c(OC(=O)c3cc(O)c(O)c(O)c3)c2)[C@H](OC(=O)c2cc(O)c(O)c(OC(=O)c3cc(O)c(O)c(O)c3)c2)[C@@H](OC(=O)c2cc(O)c(O)c(OC(=O)c3cc(O)c(O)c(O)c3)c2)[C@@H]1OC(=O)c1cc(O)c(O)c(OC(=O)c2cc(O)c(O)c(O)c2)c1)c1cc(O)c(O)c(OC(=O)c2cc(O)c(O)c(O)c2)c1 [TANNIC ACID]	Not Active	–	Not Active	Not Active	Not Active	–	–	Not Active	Not Active	Not Active	–	–	–	–	346	–	–
CO[C@@]12[C@H](COC(N)=O)C3=C(C(=O)C(C)=C(N)C3=O)N1C[C@@H]1N[C@@H]12 [MITOMYCIN]	Not Active	Not Active	Not Active	Not Active	Not Active	–	–	Not Active	Not Active	Not Active	–	–	–	–	–	–	–
